This is an account of results in US20160115186A1, “PHOSPHORIC ACID/PHOSPHONIC ACID DERIVATIVES AND MEDICINAL USES THEREOF” (priority 2013, published 2016).

Each structure is given as a SMILES string. Where two headings read alike, the source gives them in different places.

Series [1] deals with liver damage in mice caused by D-aminogalactose. The class given is in vivo, Kunmin mice. The conditions noted are these: serum, D-aminogalactose 750 mg/kg model, 0.2 mmol oral twice, 24 hours after second administration. The procedure: Kunmin mice (20 g) were grouped randomly (8/group). 0.2 mmol of a compound to be tested was orally administered; after 2 hours post-dosing, D-aminogalactose was intraperitoneally injected at a dose of 750 mg/kg to prepare a liver damage model, and the normal saline was subcutaneously injected as a normal control group. After modeling for 12 hours, 0.2 mmol of the compound to be tested was orally administrated again. After 24 hours from the second administration, blood samples were collected to take serum specimen so as to determine ALT, AST.

Series [2] concerns liver damage in mice caused by CCl4. Format: in vivo, Kunmin mice. The conditions noted are these: serum, CCl4 model, 0.2 mmol oral twice, 24 hours after second administration. The procedure:
Kunmin mice (20 g) were grouped randomly (8/group). 0.2 mmol of a compound to be tested was orally administered; after 1 hour post-dosing, a 0.1% peanut oil solution of CCl4 was subcutaneously injected (10 mL/kg), to prepare a liver damage model; the normal saline was injected as a normal control group. After modeling for 12 hours, 0.2 mmol of the compound to be tested was orally administrated again. After 24 hours from the second administration, blood samples were collected to take serum specimen so as to determine ALT, AST.

The subject of another series is DHBV. The series is described as follows: animal or person. The class given is in vivo, sheldrakes. The conditions noted are these: Duck hepatitis B virus, po, 336 h, serum DHBV DNA; for inhibition in vivo at 20 mg/kg: 20 mg/kg intragastric once a day for 14 days; for inhibition in vivo at 10 mg/kg: 10 mg/kg intragastric once a day for 14 days. The procedure: The sheldrakes infected by vertical transmission and being positive in DHBV DNA detection were grouped randomly, 5/group. Water and different doses of the compound to be tested were intragastrically administrated, respectively, once a day, for 14 days. Venous blood samples were collected pre-dosing, at day 14 of dosing and at day 7 after drug withdrawal, the serum DHBV DNA content was measured using external standard TaqMan real-time fluorescence PCR method, and the inhibition ratio was calculated, as compared to the solvent group.

The nature of the next series: in vitro. The class given is cell-based. The conditions noted are these: human; Hep G 2.2.15 cells, MTT, day 3 post-dosing. The procedure:
Hep G 2.2.15 cells were inoculated in a 96-well plate (with cell number being 5.5×10^4) to continually cultivate for 3 days, new culture solutions containing different concentrations of drugs were added, and 3 wells were provided in parallel; at day 3 post-dosing, MTT was added until 7.5 mg/ml, and continued to cultivate for 2 hours, the supernate was discarded, isopropanol containing 10% […] was added, 120 μl/well, and 0.4 μl/well was further added.

Setting [3] is: read-out: Inhibition ratio (%) Day 14 of dosing.
Where [4] appears, read: read-out: Inhibition ratio (%) day 7 after drug withdrawal.

For `CC(C)OC(=O)[C@H](C)N[P@](=O)(OC[C@H]1O[C@@H](n2ccc(N)nc2=O)CS1)Oc1ccc2c(c1)OCO2` [Compound I36], the ALT came to 187 U/L in series [1] and 490 U/L in series [2]. For the same compound, the AST was determined as 113 U/L in series [1] and 543 U/L in series [2]. The inhibition in vivo at 20 mg/kg in the series on DHBV (setting [3]) was 92%; in the series with DHBV (setting [4]) it was 10.8%. In addition, the CC50 in “in vitro” is greater than 200 µM.
For `COC(=O)[C@@H](C)NP(=O)(OCCOCn1cnc2c(=O)[nH]c(N)nc21)Oc1ccccc1` (stereo partly shown) [i-3, reference compound], the ALT worked out at 1150 U/L in series [1] and 231 U/L in series [2]. Moreover, the AST was 1419 U/L in series [1] and 446 U/L in series [2]. The inhibition in vivo at 20 mg/kg turned out to be 56.6% with DHBV (setting [3]) and 14.6% with DHBV (setting [4]). Further, the CC50 in “in vitro” was 177 µM.
On to `C[C@H](Cn1cnc2c(N)ncnc21)OCP(=O)(N[C@H](C)C(=O)OC1CCCCC1)Oc1ccc2c(c1)OCO2` (stereo partly shown) [Compound I25], for which, in the series “in vitro”, the CC50 at 3 days is greater than 200 µM.
Take `COC(=O)[C@H](C)N[P@](=O)(OC[C@H]1O[C@@H](n2ccc(N)nc2=O)CS1)Oc1ccc2c(c1)OCO2` [Compound I37]: the inhibition in vivo at 10 mg/kg worked out at 75.2% with DHBV (setting [3]) and 9.4% with DHBV (setting [4]). The same compound returned a CC50 in the series “in vitro” of 193 µM.
In the series “in vitro”, `C[C@H](N[P@](=O)(OC[C@H]1O[C@@H](n2ccc(=O)[nH]c2=O)[C@](C)(F)[C@@H]1O)Oc1ccc2c(c1)OCO2)C(=O)OC1CCCCC1` [Compound I32] had a CC50 greater than 200 µM.
On the same count and under the same terms, the same measure for `CCOC(=O)[C@H](C)N[P@](=O)(OC[C@H]1O[C@@H](n2ccc(=O)[nH]c2=O)[C@](C)(F)[C@@H]1O)Oc1ccc2c(c1)OCO2` [Compound I30]: greater than 200 µM; for `COc1nc(N)nc2c1ncn2[C@@H]1O[C@H](COP(=O)(N[C@@H](C)C(=O)OC(C)C)Oc2ccc3c(c2)OCO3)[C@@H](O)[C@@]1(C)F` (stereo partly shown) [Compound I34]: greater than 200 µM.
For the compound `CC(C)OC(=O)[C@H](C)N[P@](=O)(OC[C@H]1O[C@@H](n2ccc(=O)[nH]c2=O)[C@](C)(F)[C@@H]1O)Oc1ccc2c(c1)OCO2` [Compound I31-b], the values for the ALT in series [1] and in series [2] were 375 U/L and 205 U/L, respectively. In addition, the AST was 751 U/L in series [1] and 439 U/L in series [2].
`CCOC(=O)[C@@H](C)NP(=O)(CO[C@H](C)Cn1cnc2c(N)ncnc21)Oc1ccc2c(c1)OCO2` (stereo partly shown) [Compound I20] displayed a 50% cytotoxic concentration (CC50) at 3 days in the series “in vitro” of 179 µM.
As to `CC(C)OC(=O)[C@H](C)N[P@](=O)(OC[C@H]1O[C@@H](n2ccc(=O)[nH]c2=O)[C@](C)(F)[C@@H]1O)Oc1ccccc1` [PSI-7977, 5′-[(S)-[[(S)-1-(isopropoxycarbonyl)-ethyl]-amino]-phenoxylphosphoryl]-β-D-2′-deoxy-2′-α-fluoro-2′-β-C-methyluridine, reference compound], in series [1], the ALT stood at 1079 U/L and the AST is recorded as 1727 U/L. In series [2], this compound showed an ALT of 2324 U/L and an AST of 2538 U/L. In addition, the CC50 in “in vitro” was determined as 178 µM.
For `C[C@H](Cn1cnc2c(N)ncnc21)OCP(=O)(Oc1cccc2c1OCO2)Oc1cccc2c1OCO2` [Compound I5, 9-[(R)-2-[[bis-((benzo[1,3]dioxolan-4-yl)-oxyl)-phosphonyl]-methoxyl]-propyl]-adenine], the cytotoxic concentration (CC50) at 3 days in the series “in vitro” was greater than 200 µM.
On to `CCOC(=O)[C@H](C)N[P@](=O)(OC[C@H]1O[C@@H](n2cnc3c(OC)nc(N)nc32)[C@](C)(F)[C@@H]1O)Oc1ccc2c(c1)OCO2` [Compound I33], for which the 50% cytotoxic concentration (CC50) in “in vitro” was greater than 200 µM.
The same measure, in the same setting: then `C=C1[C@H](COP(=O)(N[C@@H](C)C(=O)OC(C)C)Oc2cccc3c2OCO3)[C@@H](O)C[C@@H]1n1cnc2c(=O)[nH]c(N)nc21` (stereo partly drawn) [Compound I39, 9-[(1S,3R,4S)-4-hydroxyl-3-[(((benzo[1,3]dioxolan-4-yl)-oxyl)-1-isopropoxycarbonylethylamino-phosphoryl)-oxymethyl]-2-methylenecyclopentyl]-guanine], with 182 µM; and `COc1nc(N)nc2c1ncn2[C@@H]1O[C@H](CO[P@@](=O)(N[C@@H](C)C(=O)OC2CCCCC2)Oc2ccc3c(c2)OCO3)[C@@H](O)[C@@]1(C)F` [Compound I35], with greater than 200 µM.
In series [1], `COc1nc(N)nc2c1ncn2[C@@H]1O[C@H](CO[P@](=O)(N[C@@H](C)C(=O)OC(C)C)Oc2ccc3c(c2)OCO3)[C@@H](O)[C@@]1(C)F` [Compound I34-a] returned an ALT of 131 U/L and an AST of 282 U/L. In series [2], this compound registered an ALT of 293 U/L and an AST of 763 U/L.
For `CC(C)OC(=O)[C@@H](C)NP(=O)(CO[C@H](C)Cn1cnc2c(N)ncnc21)Oc1ccc2c(c1)OCO2` (stereo partly shown) [Compound I21], the CC50 at 3 days in “in vitro” was greater than 200 µM.
Still for that read-out and setting: then `CC(C)C[C@@H](NP(=O)(CO[C@H](C)Cn1cnc2c(N)ncnc21)Oc1ccc2c(c1)OCO2)C(=O)OC(C)C` (stereo partly shown) [Compound I23], with greater than 200 µM.
Still for that read-out and setting: the same measure for `CC(C)Cc1sc(N)nc1-c1ccc(P(=O)(Oc2ccc3c(c2)OCO3)Oc2ccc3c(c2)OCO3)o1` [Compound I10, bis-(benzo[1,3]dioxolan-5-yl) [5-[2-amino-5-(2-methylpropyl)-thiazol-4-yl]-furan-2-yl]-phosphonate]: greater than 200 µM; for `COc1ccc(Sc2nc(N)nc3c2ncn3CCOCP(=O)(Oc2cccc3c2OCO3)Oc2cccc3c2OCO3)cc1` [Compound I7, 2-amino-6-(4-methoxylphenyl)thio-9-[[[bis-((benzo[1,3]dioxolan-4-yl)-oxyl)-phosphonyl]-methoxyl]-ethyl]-purine]: greater than 200 µM.
With `CC(C)OC(=O)[C@H](C)N[P@@](=O)(OC[C@H]1O[C@@H](n2ccc(=O)[nH]c2=O)[C@](C)(F)[C@@H]1O)Oc1ccc2c(c1)OCO2` [Compound I31-a], in series [1], the ALT is 421 U/L and the AST is listed as 253 U/L. In series [2], this compound came in with an ALT of 507 U/L and an AST of 446 U/L.
For `COc1nc(N)nc2c1ncn2[C@@H]1O[C@H](CO[P@@](=O)(N[C@@H](C)C(=O)OC(C)C)Oc2ccc3c(c2)OCO3)[C@@H](O)[C@@]1(C)F` [Compound I34-b], in that order: 341 U/L, 194 U/L, 289 U/L and 536 U/L.
`C[C@@]1(F)[C@H](O)[C@@H](COP(=O)(Oc2ccc3c(c2)OCO3)Oc2ccc3c(c2)OCO3)O[C@H]1n1ccc(=O)[nH]c1=O` [Compound I17, 5′-O-[bis-((benzo[1,3]dioxolan-5-yl)-oxyl)-phosphoryl]-β-D-2′-deoxy-2′-α-fluoro-2′-β-C-methyl uridine] yielded a CC50 at 3 days in the series “in vitro” greater than 200 µM.
Consider `COc1nc(N)nc2c1ncn2[C@@H]1O[C@H](COP(=O)(N[C@@H](C)C(=O)OC(C)C)Oc2cccc3c2OCO3)[C@@H](O)[C@@]1(C)F` (stereo partly shown) [Compound I40], for which the half-maximal cytotoxic concentration (CC50) in the series “in vitro” was greater than 200 µM.
As for `CC(C)OC(=O)[C@H](C)NP(=O)(OC[C@H]1O[C@@H](n2ccc(=O)[nH]c2=O)[C@](C)(F)[C@@H]1O)Oc1ccc2c(c1)OCO2` (stereo partly shown) [Compound I31], the CC50 in “in vitro” is greater than 200 µM.
In series [1], `COc1nc(N)nc2c1ncn2[C@@H]1O[C@H](CO[P@@](=O)(N[C@@H](C)C(=O)OC(C)C)Oc2ccccc2)[C@@H](O)[C@@]1(C)F` [PSI-353661, reference compound] returned an ALT of 1558 U/L and an AST of 1027 U/L. In series [2], this compound registered an ALT of 1669 U/L and an AST of 2312 U/L. The same compound displayed a CC50 in “in vitro” of 149 µM.
Regarding `C=C1[C@H](COP(=O)(Oc2ccc3c(c2)OCO3)Oc2ccc3c(c2)OCO3)[C@@H](O)C[C@@H]1n1cnc2c(OC)nc(N)nc21` [Compound I16, 2-amino-6-methoxyl-9-[(1S,3R,4S)-4-hydroxyl-3-(bis-(((benzo[1,3]dioxolan-5-yl)-oxyl)-phosphoryl)-oxymethyl)-2-methylenecyclopentyl]-purine], the 50% cytotoxic concentration (CC50) at 3 days in “in vitro” is greater than 200 µM.
Turning to `Cc1cc(OCP(=O)(Oc2ccc3c(c2)OCO3)Oc2ccc3c(c2)OCO3)cc(C)c1Cc1ccc(O)c(C(C)C)c1` [Compound I9, bis-(benzo[1,3]dioxolan-5-yl) [(3,5-dimethyl-4-(4′-hydroxyl-3′-isopropylbenzyl)phenoxyl)-methyl]-phosphonate], in “in vitro”, the 50% cytotoxic concentration (CC50) at 3 days was greater than 200 µM.
